Assay results from patent publication US9695155B2, “Herbicidal substituted pyrimidinyloxy benzene compounds” (E. I. DU PONT DE NEMOURS AND COMPANY, priority 2013, dated 2017).

Key:
[1] = test system: ragweed; assay: Test C preemergence; assay type: in vivo, Ambrosia elatior; settings: for Ragweed plant response rating: preemergence
Outline: (§1)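 Rated visually on 0–100 (100 = complete control) after 13–15 days under glass. Treatments went onto freshly seeded loam/sand soil or onto emerged plants at the 1- to 4-leaf stage, using a surfactant-containing solvent formulation.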

[2] = test system: soybean; assay: Test C preemergence; assay type: in vivo, Glycine max; settings: for Soybean plant response rating: preemergence
Outline: as §1

[3] = test system: barnyardgrass; assay: Test C preemergence; assay type: in vivo, Echinochloa crus-galli; settings: for Barnyardgrass plant response rating: preemergence; for Plant response rating, Barnyardgrass: Preemergence, 31 g ai/ha, scale 0 to 100, 0 no effect, 100 complete control
Outline: as §1

[4] = test system: morningglory; assay: Test C preemergence; assay type: in vivo, Ipomoea coccinea; settings: for Morningglory plant response rating: preemergence
Outline: as §1

[5] = test system: giant foxtail; assay: Test A preemergence; assay type: in vivo, Setaria faberii; settings: for Plant response rating, Foxtail, Giant: 125 g ai/ha; for Foxtail, Giant plant response rating: 500 g ai/ha
Outline: (§2)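 Visual injury scored 0–100 (100 = complete control) against untreated controls about 10 days after treatment in a greenhouse. Test chemicals, formulated with surfactant in non-phytotoxic solvent, were sprayed on soil preemergence or on 2-10 cm, one- to two-leaf plants postemergence.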

[6] = test system: oilseed rape; assay: Test C preemergence; assay type: in vivo, Brassica napus; settings: for Oilseed Rape plant response rating: preemergence
Outline: as §1

[7] = test system: blackgrass; assay: Test C preemergence; assay type: in vivo, Alopecurus myosuroides; settings: for Blackgrass plant response rating: preemergence; for Plant response rating, Blackgrass: Preemergence, 31 g ai/ha, scale 0 to 100, 0 no effect, 100 complete control
Outline: as §1

[8] = test system: waterhemp; assay: Test C preemergence; assay type: in vivo, Amaranthus rudis; settings: for Waterhemp plant response rating: preemergence
Outline: as §1

[9] = test system: barnyardgrass; assay: Test A preemergence; assay type: in vivo, Echinochloa crus-galli; settings: for Plant response rating, Barnyardgrass: 125 g ai/ha; for Barnyardgrass plant response rating: 500 g ai/ha
Outline: as §2

[10] = test system: corn; assay: Test C preemergence; assay type: in vivo, Zea mays; settings: for Corn plant response rating: preemergence; for Plant response rating, Corn: Preemergence, 31 g ai/ha, scale 0 to 100, 0 no effect, 100 complete control
Outline: as §1

[11] = test system: velvetleaf; assay: Test A preemergence; assay type: in vivo, Abutilon theophrasti
Outline: as §2

[12] = 16 g ai/ha, scale 0 to 100 (0 no effect, 100 complete control)
[13] = 62 g ai/ha, scale 0 (no effect) to 100 (complete control)
[14] = 125 g ai/ha, scale 0 (no effect) to 100 (complete control)
[15] = Preemergence, 31 g ai/ha, scale 0 to 100, 0 no effect, 100 complete control
[16] = 0 to 100 scale where 0 is no effect and 100 is complete control
[17] = 0 to 100 scale, 0 no effect, 100 complete control, approx. 10 days

| Compound | Ragweed plant response rating [1, 12] | Ragweed plant response rating [1, 13] | Ragweed plant response rating [1, 14] | Soybean plant response rating [2, 12] | Soybean plant response rating [2, 13] | Soybean plant response rating [2, 14] | Barnyardgrass plant response rating [3, 12] | Barnyardgrass plant response rating [3, 13] | Barnyardgrass plant response rating [3, 14] | Plant response rating, Barnyardgrass [3] | Morningglory plant response rating [4, 12] | Morningglory plant response rating [4, 13] | Morningglory plant response rating [4, 14] | Plant response rating, Foxtail, Giant [5, 16] | Oilseed Rape plant response rating [6, 12] | Oilseed Rape plant response rating [6, 13] | Oilseed Rape plant response rating [6, 14] | Blackgrass plant response rating [7, 12] | Blackgrass plant response rating [7, 13] | Blackgrass plant response rating [7, 14] | also measured |
| --- | --- | --- | --- | --- | --- | --- | --- | --- | --- | --- | --- | --- | --- | --- | --- | --- | --- | --- | --- | --- | --- |
| Fc1cnc(Oc2cccc(C(F)F)c2-n2cc(Br)cn2)nc1 [Compound 112] | 0 | 35 | 100 | 10 | 50 | 95 | 0 | 30 | 90 | 5 | 5 | 65 | 75 | 100 | 65 | 95 | 100 | 0 | 40 | 95 | Plant response rating, Ragweed [1, 15]: 0; Plant response rating, Soybean [2, 15]: 35; Plant response rating, Morningglory [4, 15]: 15; Foxtail, Giant plant response rating [5, 17]: 100; Plant response rating, Oilseed Rape [6, 15]: 90; Plant response rating, Blackgrass [7]: 30; Waterhemp plant response rating [8, 12]: 90; Waterhemp plant response rating [8, 13]: 100; Waterhemp plant response rating [8, 14]: 100; Plant response rating, Waterhemp [8, 15]: 98; Plant response rating, Barnyardgrass [9, 16]: 70; Barnyardgrass plant response rating [9, 17]: 100; Corn plant response rating [10, 12]: 0; Corn plant response rating [10, 13]: 5; Corn plant response rating [10, 14]: 20; Plant response rating, Corn [10]: 0; Plant response rating, Velvetleaf ([11]; 125 g ai/ha, 0 to 100 scale where 0 is no effect and 100 is complete control): 90 |
| Fc1cccc(Oc2ncc(Cl)cn2)c1-n1cc(I)cn1 [Compound 179] | 0 | 0 | 10 | 0 | 45 | 65 | 5 | 90 | 100 | 10 | 10 | 35 | 90 | 100 | 60 | 98 | 100 | 0 | 40 | 90 | Foxtail, Giant plant response rating [5, 16]: 100; Plant response rating, Blackgrass [7]: 50; Waterhemp plant response rating [8, 12]: 90; Waterhemp plant response rating [8, 13]: 98; Waterhemp plant response rating [8, 14]: 100; Plant response rating, Barnyardgrass [9, 16]: 20; Barnyardgrass plant response rating [9, 16]: 100; Corn plant response rating [10, 12]: 0; Corn plant response rating [10, 13]: 5; Corn plant response rating [10, 14]: 15; Plant response rating, Corn [10]: 5; Velvetleaf plant response rating (0 to 100 scale) ([11]; 125 g ai/ha): 60; Velvetleaf plant response rating ([11]; 500 g ai/ha, 0 to 100 scale where 0 is no effect and 100 is complete control): 80 |
